How the values were obtained:
Type in all cases: in vivo
rabbit illiac arteries [1] = test: Example 2: drug-loaded Atrium Flyer stents vs Taxus Express in rabbit iliac arteries for 28 days, histomorphic and histopathologic analyses; conditions: for EEL Area / IEL Area / Intimal Area / Lumen Area / Stenosis: mean ± SD
Protocol: Histomorphic and histopathologic analyses are then performed.

rabbit illiac arteries [2] = test: Example 1: stents implanted in rabbit iliac arteries for 28 days, histomorphic and histopathologic analyses; set-up: Injury Score / Fibrin Score / Inflamm. Score: scale not given here; conditions: for % Endothel. / % struts with Fibrin / % struts with RBC / EEL Area / Fibrin Score / IEL Area / Inflamm. Score / Injury Score / Intimal Area / Intimal Thick. / Lumen Area / Medial Area / Medial Thick. / Stenosis / Struts with Giant cells: Atrium Flyer ALPHA-3 coated stent, mean ± SD
Protocol: The Atrium Flyer is compared with bare metal stents, the Atrium Flyer coated with ALPHA-3 without drugs, and Cypher™ drug eluting stent. Histomorphic and histopathologic analyses are then performed.

rabbit's iliac vessel = test: Rapamycin drug eluting stents in rabbit iliac vessel, inflammation (inventors' earlier studies)
Source text: The inventors postulate, based on these animal study results, that one consequence of these types of drugs is retarded endothelial cell coverage, and that current drug eluting stents promote more chronic inflammation than would normally be present with a non drug eluting bare metal stent.

rabbit iliacs = test: Calcineurin inhibiting compounds after vascular injury in rabbit iliacs (inventors' earlier studies); conditions: local delivery, also rat, by reducing giant cell and eosinophil formation
Source text: Studies in rabbit iliacs following vascular injury conducted by and/or on behalf of the inventors show the benefits of using calcineurin inhibiting compounds like Tacrolimus, Cyclosporin A (CsA) and Cyclosporin derivatives, in small animals like the rat, and in rabbits. […] Such vascular injury and sirolimus medicated inflammation can be characterized as having excessive giant cell formation and esinophil propagation.

[3] = Atrium Flyer ALPHA-3 coated stent loaded with high dose of the drug, 28 days
[4] = sirolimus = Atrium drug coated stents, Cypher = commercial stent
[5] = Atrium Flyer ALPHA-3 coated stent loaded with low dose of the drug, 28 days
[6] = Atrium Flyer ALPHA-3 coated stent loaded with mid-dose of the drug, 28 days

Compound: CO[C@H]1C[C@@H]2CC[C@@H](C)[C@@](O)(O2)C(=O)C(=O)N2CCCC[C@H]2C(=O)O[C@H]([C@H](C)C[C@@H]2CC[C@@H](O)[C@H](OC)C2)CC(=O)[C@H](C)/C=C(\C)[C@@H](O)[C@@H](OC)C(=O)[C@H](C)C[C@H](C)/C=C/C=C/C=C/1C [Sirolimus, Sirolimus (rapamycin)]
- EEL Area (rabbit illiac arteries [1]; [3]): 6.13 ± 0.15 mm^2
- IEL Area (rabbit illiac arteries [1]; [3]): 5.80 ± 0.16 mm^2
- Intimal Area (rabbit illiac arteries [1]; [3]): 1.027 ± 0.036 mm^2
- Lumen Area (rabbit illiac arteries [1]; [3]): 4.78 ± 0.20 mm^2
- Stenosis (rabbit illiac arteries [1]; [3]): 17.7 ± 1.1%
- arterial healing (in words) (rabbit illiac arteries [1]; rabbit, in vivo): (greater) arterial healing
- % Struts with Giant cells (rabbit illiac arteries [1]; rabbit, in vivo, 28 days): 21.9 ± 7.6%
- % struts with RBC (rabbit illiac arteries [1]; rabbit, in vivo, 28 days): 1.2 ± 2.4%
- Endothelium (%) (rabbit illiac arteries [1]; rabbit, in vivo, 28 days): 97.2 ± 5.0%
- Fibrin Score (rabbit illiac arteries [1]; rabbit, in vivo, 28 days): 0.41 ± 0.32
- Inflam Score (rabbit illiac arteries [1]; rabbit, in vivo, 28 days): 1.00 ± 0.72
- tolerability / adverse reaction (rabbit illiac arteries [2]; Atrium Flyer ALPHA-3 coated stent loaded with low or high doses of sirolimus): well tolerated, producing no adverse reaction
- % Endothel. (rabbit illiac arteries [2]; high dose sirolimus, n = 10): 97.90 ± 4.58%
- % struts with Fibrin (rabbit illiac arteries [2]; high dose sirolimus, n = 10): 11.99 ± 6.81%
- % struts with RBC (rabbit illiac arteries [2]; high dose sirolimus, n = 10): 2.86 ± 3.23%
- EEL Area (rabbit illiac arteries [2]; high dose sirolimus, n = 10): 6.24 ± 0.25 mm^2
- Fibrin Score (rabbit illiac arteries [2]; high dose sirolimus, n = 10): 0.11 ± 0.09
- IEL Area (rabbit illiac arteries [2]; high dose sirolimus, n = 10): 5.90 ± 0.25 mm^2
- Inflamm. Score (rabbit illiac arteries [2]; high dose sirolimus, n = 10): 0.03 ± 0.10
- Injury Score (rabbit illiac arteries [2]; high dose sirolimus, n = 10): 0.04 ± 0.06
- Intimal Area (rabbit illiac arteries [2]; high dose sirolimus, n = 10): 0.99 ± 0.10 mm^2
- Intimal Thick. (rabbit illiac arteries [2]; high dose sirolimus, n = 10): 0.08 ± 0.03 mm
- Lumen Area (rabbit illiac arteries [2]; high dose sirolimus, n = 10): 4.94 ± 0.27 mm^2
- Medial Area (rabbit illiac arteries [2]; high dose sirolimus, n = 10): 0.34 ± 0.05 mm^2
- Medial Thick. (rabbit illiac arteries [2]; high dose sirolimus, n = 10): 0.06 ± 0.02 mm
- Stenosis (rabbit illiac arteries [2]; high dose sirolimus, n = 10): 16.73 ± 1.61%
- Struts with Giant cells (rabbit illiac arteries [2]; high dose sirolimus, n = 10, in % (unit assumed)): 2.80 ± 0.63
- % Endothel. (rabbit illiac arteries [2]; low dose sirolimus, n = 8): 97.62 ± 2.67%
- % struts with Fibrin (rabbit illiac arteries [2]; low dose sirolimus, n = 8): 34.12 ± 20.62%
- % struts with RBC (rabbit illiac arteries [2]; low dose sirolimus, n = 8): 3.46 ± 3.07%
- EEL Area (rabbit illiac arteries [2]; low dose sirolimus, n = 8): 5.99 ± 0.44 mm^2
- Fibrin Score (rabbit illiac arteries [2]; low dose sirolimus, n = 8): 0.20 ± 0.35
- IEL Area (rabbit illiac arteries [2]; low dose sirolimus, n = 8): 5.63 ± 0.38 mm^2
- Inflamm. Score (rabbit illiac arteries [2]; low dose sirolimus, n = 8): 0.53 ± 0.41
- Injury Score (rabbit illiac arteries [2]; low dose sirolimus, n = 8): 0.06 ± 0.07
- Intimal Area (rabbit illiac arteries [2]; low dose sirolimus, n = 8): 0.97 ± 0.11 mm^2
- Intimal Thick. (rabbit illiac arteries [2]; low dose sirolimus, n = 8): 0.07 ± 0.01 mm
- Lumen Area (rabbit illiac arteries [2]; low dose sirolimus, n = 8): 4.74 ± 0.32 mm^2
- Medial Area (rabbit illiac arteries [2]; low dose sirolimus, n = 8): 0.36 ± 0.09 mm^2
- Medial Thick. (rabbit illiac arteries [2]; low dose sirolimus, n = 8): 0.05 ± 0.01 mm
- Stenosis (rabbit illiac arteries [2]; low dose sirolimus, n = 8): 17.15 ± 1.84%
- Struts with Giant cells (rabbit illiac arteries [2]; low dose sirolimus, n = 8, in % (unit assumed)): 2.50 ± 1.41
- endothelialization (in words) (rabbit illiac arteries [2]; [4]): well endothelialized
- healing (in words) (rabbit illiac arteries [2]; [4]): delayed healing
- inflammatory response around the drug eluting stent (in words) (rabbit's iliac vessel; Rapamycin drug eluting stent, rabbit iliacs): presence of numerous giant cells and esinophils
- amount of inflammation induced by overlapping drug coating (rabbit's iliac vessel; two separate rapamycin drug eluting stents overlapping in rabbit iliac vessel): increases nearly two fold

Compound: Cyclosporin A
- inflammation following vascular injury (in words) (rabbit iliacs): effectively reduce inflammation following vascular injury

Compound: C=CC[C@@H]1/C=C(\C)C[C@H](C)C[C@H](OC)[C@H]2O[C@@](O)(C(=O)C(=O)N3CCCC[C@H]3C(=O)O[C@H](/C(C)=C/[C@@H]3CC[C@@H](O)[C@H](OC)C3)[C@H](C)[C@@H](O)CC1=O)[C@H](C)C[C@@H]2OC [Tacrolimus]
- inflammation following vascular injury (in words) (rabbit iliacs): effectively reduce inflammation following vascular injury

Compound: CC(=O)O[C@H]1C(=O)[C@@]2(C)[C@H]([C@H](OC(=O)c3ccccc3)[C@]3(O)C[C@H](OC(=O)[C@H](O)[C@@H](NC(=O)c4ccccc4)c4ccccc4)C(C)=C1C3(C)C)[C@]1(OC(C)=O)CO[C@@H]1C[C@@H]2O [Paclitaxel, paclitaxel]
- EEL Area (rabbit illiac arteries [1]; [3]): 5.63 ± 0.24 mm^2
- IEL Area (rabbit illiac arteries [1]; [3]): 5.40 ± 0.24 mm^2
- Intimal Area (rabbit illiac arteries [1]; [3]): 1.048 ± 0.084 mm^2
- Lumen Area (rabbit illiac arteries [1]; [3]): 4.35 ± 0.22 mm^2
- Stenosis (rabbit illiac arteries [1]; [3]): 19.4 ± 1.5%
- EEL Area (rabbit illiac arteries [1]; [5]): 5.88 ± 0.41 mm^2
- IEL Area (rabbit illiac arteries [1]; [5]): 5.58 ± 0.36 mm^2
- Intimal Area (rabbit illiac arteries [1]; [5]): 1.234 ± 0.197 mm^2
- Lumen Area (rabbit illiac arteries [1]; [5]): 4.35 ± 0.40 mm^2
- Stenosis (rabbit illiac arteries [1]; [5]): 22.2 ± 4.0%
- EEL Area (rabbit illiac arteries [1]; [6]): 5.56 ± 0.26 mm^2
- IEL Area (rabbit illiac arteries [1]; [6]): 5.31 ± 0.25 mm^2
- Intimal Area (rabbit illiac arteries [1]; [6]): 1.152 ± 0.243 mm^2
- Lumen Area (rabbit illiac arteries [1]; [6]): 4.16 ± 0.27 mm^2
- Stenosis (rabbit illiac arteries [1]; [6]): 21.8 ± 5.0%
- in-stent neointimal growth (in words) (rabbit illiac arteries [1]; Atrium high dose stents, 28 days, compared with Taxus Express): suppresses in-stent neointimal growth
- arterial healing (in words) (rabbit illiac arteries [1]; rabbit, in vivo): (greater) arterial healing

Compound: O=C1CCc2cc(OCCCCc3nnnn3C3CCCCC3)ccc2N1 [Cilostazol, cilostazol]
- EEL Area (rabbit illiac arteries [1]; [3]): 5.73 ± 0.31 mm^2
- IEL Area (rabbit illiac arteries [1]; [3]): 5.47 ± 0.26 mm^2
- Intimal Area (rabbit illiac arteries [1]; [3]): 1.245 ± 0.303 mm^2
- Lumen Area (rabbit illiac arteries [1]; [3]): 4.25 ± 0.42 mm^2
- Stenosis (rabbit illiac arteries [1]; [3]): 22.7 ± 5.9%
- EEL Area (rabbit illiac arteries [1]; [5]): 5.80 ± 0.22 mm^2
- IEL Area (rabbit illiac arteries [1]; [5]): 5.51 ± 0.21 mm^2
- Intimal Area (rabbit illiac arteries [1]; [5]): 1.246 ± 0.115 mm^2
- Lumen Area (rabbit illiac arteries [1]; [5]): 4.26 ± 0.28 mm^2
- Stenosis (rabbit illiac arteries [1]; [5]): 22.7 ± 2.4%
- EEL Area (rabbit illiac arteries [1]; [6]): 5.70 ± 0.16 mm^2
- IEL Area (rabbit illiac arteries [1]; [6]): 5.43 ± 0.14 mm^2
- Intimal Area (rabbit illiac arteries [1]; [6]): 1.257 ± 0.321 mm^2
- Lumen Area (rabbit illiac arteries [1]; [6]): 4.25 ± 0.39 mm^2
- Stenosis (rabbit illiac arteries [1]; [6]): 23.0 ± 5.7%
- reduction in neointima (in words) (rabbit illiac arteries [1]; Atrium Flyer coated stents, 28 days): No reduction in neointima
